Test results reported in publication PMC10714400, “Antimicrobial Peptide–Peptoid Hybrids with and without Membrane Disruption” (ACS Infectious Diseases, 2023).
Read-outs that look alike come from different tables or passages of the source. Where a SMILES comes first, the peptide text is derived from it. [ ]: non-standard residue; d: D form. Nlys = NCCCCNCC(=O)O

Legend:
[1] = system: A. baumannii ATCC19606
Method in brief: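 MTT added (20–30 min, room temperature); MIC read by eye as lowest concentration inhibiting visible growth (yellow). Polymyxin B positive control from 16 μg/mL.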

[2] = system: K. pneumoniae OXA-48
Method in brief: (§1)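 Using MTT as a visual viability dye, MICs were scored as the lowest concentration with no visible growth. Prior to staining, ~5 × 10^5 CFU per well grew in MH medium for ca. 18 h at 37 °C under static conditions.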

[3] = system: P. aeruginosa PAO1
Method in brief: as §1

[4] = system: PA14 2P4 (pmrB)
Method in brief: as §1

[5] = system: PA14 4.18 (pmrB)
Method in brief: as §1

[6] = system: S. aureus COL (MRSA)
Method in brief: as §1

[7] = system: ZEM-1A (clinical MDR P. aeruginosa isolate)
Method in brief: as §1

[8] = system: ZEM9A (clinical MDR P. aeruginosa isolate)
Method in brief: as §1

[9] = system: human red blood cells (hRBC); experiment: Minimum hemolytic concentration (MHC); type: cell-based
Source text: We also measured minimal hemolysis concentrations (MHC) on human red blood cells by serial 2-fold dilution as an indication of toxicity against eukaryotic cells (Table 1).

[10] = system: B. cenocepacia; settings: pH 7.4
Method in brief: as §1

[11] = system: P. aeruginosa PA14
Method in brief: as §1

[12] = system: S. aureus Newman; settings: Newman
Method in brief: as §1

[13] = system: S. epidermis
Method in brief: as §1

[14] = system: S. maltophilia
Method in brief: as §1

[15] = system: HEK293 cells; experiment: Cell viability assay by Alamar blue; settings: read-out: Toxicity on HEK293 cells; CSV
Method in brief: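 Cells kept at 37 °C in 5% CO2 with 10% FBS plus penicillin/streptomycin, in RPMI-1640 for A549 and high-glucose DMEM for HEK293, then assessed for viability by Alamar blue; values are mean ± SD of three.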

CC(C)C[C@H](NC(=O)[C@H](CC(C)C)NC(=O)[C@H](CC(C)C)NC(=O)[C@H](CCCCN)NC(=O)[C@H](CC(C)C)NC(=O)[C@H](CC(C)C)NC(=O)CN(CCCCN)C(=O)[C@H](CC(C)C)NC(=O)[C@H](CC(C)C)NC(=O)CN(CCCCN)C(=O)CNCCCCN)C(N)=O [EB6, kkLLkLLKLLL] (H-[Nlys][Nlys]LL[Nlys]LLKLLL-NH2)
32 µg/mL: MIC PA14 2P4 (pmrB) ([4]; MH pH 7.4, 16–20 h at 37 °C)
250 to 1000 µg/mL: MHC (hemolysis) ([9]; red cells of human)
8 ug/mL: MIC K. pneumoniae OXA-48, […] MH at pH 8.5 ([2]; CSV, […] MH at pH 8.5) | MIC K. pneumoniae OXA-48, full MH at pH 7.4 ([2]; CSV, full MH at pH 7.4) | MIC S. aureus COL (MRSA), full MH at pH 7.4 ([6]; COL, 4 h, pH 7.4) | MIC S. aureus Newman, full MH at pH 7.4 ([12]; 4 h, pH 7.4)
4 µg/mL: MIC P. aeruginosa PAO1 […] 8.5 ([3]; Table S2, […] MH, pH 8.5) | MIC P. aeruginosa PAO1 Full MH 7.4 ([3]; Table S2, full MH, pH 7.4) | MIC ZEM9A ([8]; MH pH 7.4, 16–20 h at 37 °C)
8 µg/mL: MIC A. baumannii ATCC19606 Full MH 8.5 ([1]; Table S2, full MH, pH 8.5) | MIC K. pneumoniae OXA-48 ([2]; Table S3, […] MH at pH 8.5) | MIC S. aureus COL (MRSA) Full MH 7.4 ([6]; Table S2, full MH, pH 7.4) | MIC S. aureus Newman ([12]; pH 7.4)
32 ug/mL: MIC P. aeruginosa PA14 2P4, full MH at pH 7.4 ([4]; CSV, full MH at pH 7.4)
>32 µg/mL: MIC B. cenocepacia [10]
>32 ug/mL: MIC B. cenocepacia, full MH at pH 7.4 ([10]; 4 h)
3 ug/mL: MIC P. aeruginosa ZEM-1A, […] MH at pH 8.5 ([7]; CSV, […] MH at pH 8.5) | MIC P. aeruginosa PA14, full MH at pH 7.4 ([11]; PA14, 4 h, pH 7.4) | MIC S. epidermis, full MH at pH 7.4 ([13]; 4 h, pH 7.4) | MIC S. maltophilia, full MH at pH 7.4 ([14]; 4 h, pH 7.4)
4 ug/mL: MIC P. aeruginosa PAO1, full MH at pH 7.4 ([3]; PAO1, 4 h, pH 7.4) | MIC P. aeruginosa ZEM9A, full MH at pH 7.4 ([8]; CSV, full MH at pH 7.4)
16 µg/mL: MIC P. aeruginosa PAO1 Full MH 8.5 ([3]; Table S2, full MH, pH 8.5) | MIC PA14 4.18 (pmrB) ([5]; MH pH 7.4, 16–20 h at 37 °C) | MIC S. aureus COL (MRSA) Full MH 8.5 ([6]; Table S2, full MH, pH 8.5)
54 ± 1 µM: IC50 [15]
250 µg/mL: MHC [9]
16 ug/mL: MIC P. aeruginosa PA14 4.18, full MH at pH 7.4 ([5]; CSV, full MH at pH 7.4)
2 to 4 µg/mL: MIC P. aeruginosa ZEM-1A ([7]; Table S3, […] MH at pH 8.5) | MIC P. aeruginosa PA14 ([11]; PA14, pH 7.4) | MIC S. epidermis ([13]; pH 7.4) | MIC S. maltophilia ([14]; 4 h, pH 8.5) | MIC S. maltophilia ([14]; pH 7.4)
2 µg/mL: MIC A. baumannii ATCC19606 […] 7.4 ([1]; Table S2, […] MH, pH 7.4) | MIC A. baumannii ATCC19606 […] 8.5 ([1]; Table S2, […] MH, pH 8.5) | MIC A. baumannii ATCC19606 Full MH 7.4 ([1]; Table S2, full MH, pH 7.4) | MIC P. aeruginosa PAO1 […] 7.4 ([3]; Table S2, […] MH, pH 7.4) | MIC P. aeruginosa PA14 2P4 ([4]; Table S3, […] MH at pH 8.5) | MIC P. aeruginosa PA14 4.18 ([5]; Table S3, […] MH at pH 8.5) | MIC S. aureus COL (MRSA) […] 7.4 ([6]; Table S2, […] MH, pH 7.4) | MIC S. aureus COL (MRSA) […] 8.5 ([6]; Table S2, […] MH, pH 8.5) | MIC ZEM-1A ([7]; MH pH 7.4, 16–20 h at 37 °C) | MIC P. aeruginosa ZEM9A ([8]; Table S3, […] MH at pH 8.5) | MIC P. aeruginosa PA14 ([11]; PA14, pH 8.5) | MIC S. aureus Newman ([12]; 4 h, pH 8.5) | MIC S. epidermis ([13]; 4 h, pH 8.5)
2 ug/mL: MIC A. baumannii ATCC19606, full MH at pH 7.4 ([1]; ATCC19606, 4 h, pH 7.4) | MIC P. aeruginosa PA14 2P4, […] MH at pH 8.5 ([4]; CSV, […] MH at pH 8.5) | MIC P. aeruginosa PA14 4.18, […] MH at pH 8.5 ([5]; CSV, […] MH at pH 8.5) | MIC P. aeruginosa ZEM-1A, full MH at pH 7.4 ([7]; CSV, full MH at pH 7.4) | MIC P. aeruginosa ZEM9A, […] MH at pH 8.5 ([8]; CSV, […] MH at pH 8.5)
